Assay results reported in patent US9604940B2 (Chroma Therapeutics Ltd., priority 2012, dated 2017).

Columns and labels:
CSF1R (FMS) = target: T1, CSF1R (FMS) (Homo sapiens, UniProt P07333); experiment: CSF1R (FMS) kinase activity, Z'-LYTE biochemical assay (Invitrogen); details: ATP at or close to Km, 60 minute reaction at room temperature, read-out: Inhibitor activity versus CSF-1
T1 construct: purchased Invitrogen (Paisley, UK)
Experimental: CSF1R (FMS) Kinase Activity
The ability of compounds to inhibit CSF1R (FMS) kinase activity was measured in an assay performed by Invitrogen (Paisley, UK). The Z′-LYTE™ biochemical assay employs a fluorescence-based, coupled-enzyme format and is based on the differential sensitivity of phosphorylated and non-phosphorylated peptides to proteolytic cleavage. The peptide substrate is labelled with two fluorophores—one at each end—that make up a FRET pair. In the primary reaction, the kinase transfers the gamma-phosphate of ATP to a single […] residue in a synthetic FRET-peptide. In the secondary reaction, a site-specific protease recognizes and cleaves non-phosphorylated FRET-peptides. Phosphorylation of FRET-peptides suppresses cleavage by the Development Reagent. Cleavage disrupts FRET between the donor (i.e. coumarin) and acceptor (i.e. fluorescein) fluorophores on the FRET-peptide, whereas uncleaved, phosphorylated FRET-peptides maintain FRET. A […] method, which calculates the ratio (the Emission Ratio) of donor emission to acceptor emission after excitation of the donor fluorophore at 400 nm, is used to quantitate reaction progress.
The final 10 μL Kinase Reaction consists of 0.12-12.3 ng CSF1R (FMS), 2 μM Tyr 01 Peptide and ATP in 50 mM HEPES pH 7.5, 0.01% BRIJ-35, 10 mM MgCl2, 1 mM EGTA. The assay is performed at an ATP concentration at, or close to, the Km. After the 60 minute Kinase Reaction incubation at room temperature, 5 μL of a 1:256 dilution of Development Reagent is added. The assay plate is incubated for a further 60 minutes at room temperature and read on a fluorescence plate reader.
Duplicate data points are generated from a ⅓ log dilution series of a stock solution of test compound in DMSO. Nine dilutions steps are made from a top concentration of 10 mM, and a ‘no compound’ blank is included. Data is collected and analysed using XLfit software from IDBS. The dose response curve is curve fitted to model number 205 (sigmoidal dose-response model). From the curve generated, the concentration giving 50% inhibition is determined and reported.

MCP-1 = experiment: MCSF-stimulation of human whole blood, MCP-1 levels by sandwich ELISA; type: cell-based; details: inhibitor 2 hours before MCSF 50 ng/ml, 22 hrs, MCP-1 in cell-free supernatants, read-out: Inhibitor activity versus MCP-1
Experimental: Macrophage Colony-Stimulating Factor (MCSF)-Stimulation of Human Whole Blood
Whole blood was taken by venous puncture using heparinised vacutainers (Becton Dickinson) and diluted in an equal volume of RPMI1640 tissue culture media (Sigma). 100 μl was plated in V-bottomed 96 well tissue culture treated plates. 2 hours after the addition of the inhibitor in 100 μl of RPMI1640 media, the blood was stimulated with MCSF (Peprotech: #300-25-10 uG) at a final concentration of 50 ng/ml and incubated at 37° C. in 5% CO2 for 22 hrs. MCP-1 levels were measured from cell-free supernatants by sandwich ELISA developed from MCP-1/CCL2 Duoset (R&D Systems #DY279). Additional reagents required for ELISA were purchased from Sigma, (BSA: A3059, 10×PBS: D1408, Tween20: P5927) R&D Systems, (colour reagent: #DY999 and stop solution: #DY994) and Costar (96-well EIA plates: #2592). Assays were carried out following the manufacturer's instructions with the following modifications: Cell-free supernatants were diluted 30:70 in reagent diluent before assay. All incubations except capture antibody were carried out with shaking at 550 rpm. 3 washes were carried out between steps, and incubation times were blocking 1.5 hr, sample/standard and detection antibody incubations 2 hr, HRP incubation 30 min, colour development 20 min. • IC50 values were allocated to one of five ranges as follows: • Range A: IC50<100 nM • Range B: 100 nM<IC50<300 nM • Range C: 300 nM<1050<1000 nM • Range D: 1000 nM<IC50<5000 nM • Range E: IC50>5000 nM • NT=not tested

T1 sequence (P07333 20-972): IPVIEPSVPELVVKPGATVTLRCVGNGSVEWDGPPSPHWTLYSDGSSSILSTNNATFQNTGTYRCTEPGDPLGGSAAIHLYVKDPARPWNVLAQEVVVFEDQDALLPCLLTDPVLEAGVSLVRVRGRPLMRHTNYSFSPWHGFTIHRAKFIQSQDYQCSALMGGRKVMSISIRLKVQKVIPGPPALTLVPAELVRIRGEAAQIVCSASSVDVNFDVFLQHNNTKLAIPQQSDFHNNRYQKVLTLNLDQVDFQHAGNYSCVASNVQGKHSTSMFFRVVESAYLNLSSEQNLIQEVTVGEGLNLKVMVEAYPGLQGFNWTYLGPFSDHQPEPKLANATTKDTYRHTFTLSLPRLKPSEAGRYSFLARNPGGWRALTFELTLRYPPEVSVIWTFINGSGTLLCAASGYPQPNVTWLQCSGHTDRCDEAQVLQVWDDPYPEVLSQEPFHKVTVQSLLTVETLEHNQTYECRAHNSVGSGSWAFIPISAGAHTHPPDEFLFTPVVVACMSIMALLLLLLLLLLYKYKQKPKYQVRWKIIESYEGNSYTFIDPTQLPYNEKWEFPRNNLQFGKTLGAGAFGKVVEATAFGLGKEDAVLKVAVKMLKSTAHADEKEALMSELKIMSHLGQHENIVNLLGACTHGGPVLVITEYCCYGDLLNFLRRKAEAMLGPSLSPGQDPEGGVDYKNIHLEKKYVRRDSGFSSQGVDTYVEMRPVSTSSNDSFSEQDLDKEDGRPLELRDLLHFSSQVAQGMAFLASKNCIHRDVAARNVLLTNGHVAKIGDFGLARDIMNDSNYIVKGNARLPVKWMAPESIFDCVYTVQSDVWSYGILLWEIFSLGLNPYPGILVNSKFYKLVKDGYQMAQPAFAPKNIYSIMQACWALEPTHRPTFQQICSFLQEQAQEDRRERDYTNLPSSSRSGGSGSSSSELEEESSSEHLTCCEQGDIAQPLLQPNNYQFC

Structure (SMILES)	IC50 (CSF1R (FMS))	IC50 (MCP-1)
Cc1cc(-c2cnc(N)c(NCc3c(Cl)cccc3Cl)n2)ccc1CNC1CCN[C@@H](C(=O)OC2CCCC2)C1 (stereo partly drawn) [Example 19, Cyclopentyl (2R)-4-[(4-{5-amino-6-[(2,6-dichlorobenzyl)amino]pyrazin-2-yl}-2-methylbenzyl)amino]piperidine-2-carboxylate]	< 100 nM	< 100 nM
CC(C)C[C@H](NCCn1cc(-c2cnc(N)c(NCc3c(Cl)cccc3Cl)n2)cn1)C(=O)OC(C)(C)C [Example 58, tert-Butyl N-[2-(4-{5-amino-6-[(2,6-dichlorobenzyl)amino]pyrazin-2-yl}-1H-pyrazol-1-yl)ethyl]-L-leucinate]	> 5000 nM	> 5000 nM
CC(C)C[C@H](NCc1cccc(-c2cnc(N)c(NCc3c(Cl)cccc3Cl)n2)c1)C(=O)OC1CCCC1 [Example 38, Cyclopentyl N-(3-{5-amino-6-[(2,6-dichlorobenzyl)amino]pyrazin-2-yl}benzyl)-L-leucinate]	> 5000 nM	> 5000 nM
Nc1ncc(-c2ccc(C(=O)N3CCNC(C(=O)OC4CCCC4)C3)cc2)nc1NCc1c(Cl)cccc1Cl (stereo not shown) [Example 3, Cyclopentyl 4-(4-{5-amino-6-[(2,6-dichlorobenzyl)amino]pyrazin-2-yl}benzoyl)piperazine-2-carboxylate]	100 to 300 nM	300 to 1000 nM
CC(C)(C)OC(=O)[C@@H]1CC(NCc2ccc(-c3cnc(N)c(NCc4c(Cl)cccc4Cl)n3)cc2)CCN1 (stereo partly drawn) [Example 22, tert-Butyl (2S)-4-[(4-{5-amino-6-[(2,6-dichlorobenzyl)amino]pyrazin-2-yl}benzyl)amino]piperidine-2-carboxylate]	< 100 nM	300 to 1000 nM
CC(C)C[C@H](NCc1cccc(-c2cnc(N)c(NCc3c(Cl)cccc3Cl)n2)c1)C(=O)OC(C)(C)C [Example 39, tert-Butyl N-(3-{5-amino-6-[(2,6-dichlorobenzyl)amino]pyrazin-2-yl}benzyl)-L-leucinate]	> 5000 nM	> 5000 nM
Nc1ncc(-c2ccc(CNC3CCN[C@@H](C(=O)OC4CCCC4)C3)cc2)nc1NCc1c(Cl)cccc1Cl (stereo partly drawn) [Example 7, Cyclopentyl (2R)-4-[(4-{5-amino-6-[(2,6-dichlorobenzyl)amino]pyrazin-2-yl}benzyl)amino]piperidine-2-carboxylate]	< 100 nM	100 to 300 nM
CC(C)(C)OC(=O)[C@H]1CC(NCc2ccc(-c3cnc(N)c(NCc4c(Cl)cccc4Cl)n3)cc2)CCN1 (stereo partly drawn) [Example 21, tert-Butyl (2R)-4-[(4-{5-amino-6-[(2,6-dichlorobenzyl)amino]pyrazin-2-yl}benzyl)amino]piperidine-2-carboxylate]	< 100 nM	300 to 1000 nM
Nc1ncc(-c2ccc(C(=O)NC3CCN[C@@H](C(=O)OC4CCCC4)C3)cc2)nc1NCc1c(Cl)cccc1Cl (stereo partly drawn) [Example 1, Cyclopentyl (2R)-4-[(4-{5-amino-6-[(2,6-dichlorobenzyl)amino]pyrazin-2-yl}benzoyl)amino]piperidine-2-carboxylate]	< 100 nM	300 to 1000 nM
Nc1ncc(-c2ccc(CNC3CCN[C@@H](C(=O)OC4CCCC4)C3)c(Cl)c2)nc1NCc1c(Cl)cccc1Cl (stereo partly drawn) [Example 18, Cyclopentyl (2R)-4-[(4-{5-amino-6-[(2,6-dichlorobenzyl)amino]pyrazin-2-yl}-2-chlorobenzyl)amino]piperidine-2-carboxylate]	100 to 300 nM	100 to 300 nM
CN(C(=O)c1ccc(-c2cnc(N)c(NCc3c(Cl)cccc3Cl)n2)cc1)C1CCN[C@@H](C(=O)OC2CCCC2)C1 (stereo partly shown) [Example 2]	100 to 300 nM	300 to 1000 nM
CC(C)(C)OC(=O)C1CN(Cc2ccc(-c3cnc(N)c(NCc4c(Cl)cccc4Cl)n3)cc2)CCN1 (stereo not shown) [Example 23, tert-Butyl 4-(4-{5-amino-6-[(2,6-dichlorobenzyl)amino]pyrazin-2-yl}benzyl)piperazine-2-carboxylate]	300 to 1000 nM	300 to 1000 nM
CC(C)(C)OC(=O)[C@H]1CC(NCc2cccc(-c3cnc(N)c(NCc4c(Cl)cccc4Cl)n3)c2)CCN1 (stereo partly drawn) [Example 46, tert-Butyl (2R)-4-[(3-{5-amino-6-[(2,6-dichlorobenzyl)amino]pyrazin-2-yl}benzyl)amino]piperidine-2-carboxylate]	< 100 nM	300 to 1000 nM
CC(C)(C)OC(=O)[C@H]1CC(NC(=O)c2cccc(-c3cnc(N)c(NCc4c(Cl)cccc4Cl)n3)c2)CCN1 (stereo partly drawn) [Example 33, tert-Butyl (2R)-4-[(3-{5-amino-6-[(2,6-dichlorobenzyl)amino]pyrazin-2-yl}benzoyl)amino]piperidine-2-carboxylate]	100 to 300 nM	1000 to 5000 nM
